Patent US11091429B2, “Organic compounds” (Givaudan SA, priority 2012, dated 2021)
Entries after “also recorded” stand apart in the source; their conditions may differ.

Legend:
Tasting in soy sauce = conditions: 0.5 ppm in pure salt reduced kikoman soy sauce (9% salt)
Method: (§1) The following formulations were prepared and tasted by trained panelists.
(§2) Salt level pure product between 5-40%
(§3) Salt level in application 0.3-1.0%
(§4) Samples were prepared and evaluated by expert tasters. Tasters were asked to describe the samples focusing on authentic taste, mouthfeel, fullness, salty-ness, salivation, umami, sweetness, juiciness, richness, long lastingness and fattiness.
Test on Kikkoman Soy Sauce Low Salt
Base is Kikkoman soy sauce
(§5) Samples were prepared and evaluated by expert tasters. Tasters were asked to describe the samples focusing on authentic taste, mouthfeel, fullness, salivation, salty-ness, umami, sweetness, juiciness, richness, long lastingness and fattiness.

Tasting in fish sauce = conditions: 0.5 ppm in pure fish sauce (27% salt)
Method: as §1, §2, §3, §5

[1] = Tasting in low fat mayonnaise; conditions: 0.5 ppm in low fat mayonnaise (27% fat)
Method: as §1
Low fat Mayonnaise (27% Fat, 9% carbohydrates (of which 5% sugar), 1.4% salt)
as §4
Calve 60% Reduced Fat Mayonnaise
Base is Calve Mayonnaise 60% reduced fat (market Product)
as §5
Low fat Mayonnaise (27% Fat)

[2] = Tasting in low fat salad dressing; conditions: 0.5 ppm in low fat salad dressing (13.6% fat)
Method: as §1
low fat salad dressing (13.6% Fat, 8%, carbohydrates (of which 5.3% sugar))
as §4
Calve Salad Dressing Low Fat (13.6% Fat):
Base is Calve salad dressing (market product)
as §5
Low fat salad dressing (13.6% Fat)

[3] = Tasting in chicken bouillon; conditions: 0.7% salt, 0.5% fat
Method: as §1
Standard Chicken bouillon base, 0.7% salt, 0.5% fat
as §5
Test in Soups and Bouillons
Standard Chicken Bouillon Base

Tasting in beef jus = conditions: 40 PPB in beef jus
Method: as §1, §5

[4] = Tasting in spreadable cheese; conditions: 0.5 PPM in spreadable cheese (Eru)
Method: as §1, §4
Test on “Eru Prestige” Spreadable Cheese
Base is Eru prestige (market product)
as §5

Tasting in cheese sauce = conditions: 0.5 PPM in cheese sauce 5% fat 1.6% salt
Method: as §1
Cheese sauce: 5% fat 1.6% salt
as §5
Cheese Sauce: 5% Fat 1.6% Salt

[5] = Tasting on fried potato snack product; conditions: 35% fat, cheese seasoning
Method: as §1
A snack product consisting of a fried potato base, containing 35% fat and flavored with cheese seasoning containing salt, MSG, dairy, organic acids, sugars, and a flavour formulation. The following compounds were added to the snack product at the indicated levels and the tasting results are reported: […]

[6] = Tasting on air expanded base; conditions: 3% fat, cheese seasoning
Method: as §1
An air expanded base (Rice, wheat, Tapioca, potato, salt, sugar, modified starch), containing 3% fat and flavored with cheese seasoning containing salt, MSG, dairy, organic acids, sugars and flavor. The following compounds were added to the base at the indicated levels and the tasting results are reported: […]

[7] = Tasting in strawberry flavoured sugar sweetened yoghurt; conditions: 2 ppm, 1.5% fat yoghurt, 8% sucrose, strawberry flavour 0.015%
Method: Strawberry Flavoured Sugar Sweetened Yoghurt
In a 1.5% fat yoghurt base, sweetened with 8% sucrose by weight, flavoured with a proprietary strawberry flavour @ 0.015% several different N-acyl aminoacids were added.
as §4
Test in a Strawberry Yoghurt
Base: Yoghurt 1.5% fat yoghurt, 8% sucrose, proprietary strawberry flavour @ 0.015%
(§6) Samples were evaluated by expert tasters. Tasters were asked to describe the samples focusing on authentic taste, mouthfeel, fullness, salivation, salty-ness, umami, sweetness, juiciness, richness, long lastingness and fattiness.

[8] = Tasting in strawberry drink; conditions: 0.5 ppm; 7% sucrose, 0.1% citric acid, strawberry flavour 0.015%
Method: as §4
Comparison in a Strawberry Drink
Base is 7% sucrose, 0.1% citric acid, and a proprietary strawberry flavour @ 0.015%
(§7) Samples were evaluated by expert tasters. Tasters were asked to describe the samples focusing on authentic taste, mouthfeel, fullness, salty-ness, salivation, umami, sweetness, juiciness, richness, long lastingness and fattiness.
Base is water, 7% sucrose, 0.1% citric acid, proprietary strawberry flavour @ 0.015%
as §6
Test in a Strawberry Drink
Base is 7% sucrose, 0.1% citric acid, proprietary strawberry flavour @ 0.015%

[9] = Tasting in vanilla milk 0.15% fat; conditions: 1 ppm, 4% sucrose, Vaniline 10 ppm + vanilla extract 0.03%
Method: as §4
Base: Milk 0.15% fat, sweetened with 4% sucrose by weight, flavoured with proprietary
Vaniline flavour @ 10 ppm+Vanilla ext. @ 0.03%
as §7
Comparison in a Vanilla Milk Drink
Vaniline @ 10 ppm+Vanilla extract @ 0.03%
Base: Milk 0.15% fat, sweetened with 4% sucrose by weight, flavoured with proprietary Vaniline @ 10 ppm+Vanilla extract @ 0.03%

[10] = Test in pear flavoured drink; conditions: 1 ppm; water, 7% sugar (8% elsewhere in the source), 0.1% citric acid, pear flavour 0.025%
Method: as §4
Test in Pear Flavoured Drink:
Base: water, 7% sugar, 0.1% citric acid, proprietary pear flavour at 0.025%
as §7
Comparison in a Pear Drink
Base is water, 8% sugar, 0.1% citric acid, proprietary pear flavour at 0.025%

[11] = Test in pineapple flavoured drink; conditions: 1 ppm; water, 8% sugar, 0.1% citric acid, pineapple flavour 0.03%
Method: as §4
Test in Pineapple Flavoured Drink:
Base is water, 8% sugar, 0.1% citric acid and proprietary pineapple flavour at 0.03%
as §7

With `CCCCCCCC/C=C\CCCCCCCC(=O)NC1(C(=O)O)CC1` [C18:1-ACCA, N-oleoyl 1-amino-cyclopropyl carboxylic acid] as the compound, how does the tasting result (Tasting in soy sauce) read?
The tasting result was “strong upfront saltiness lingering, very strong saltiness”.

And the tasting result (Tasting in fish sauce)?
The tasting result was “strong saltiness lingering and with a strong body and mouthfeel”.

And the tasting result [1]?
The tasting result was “nicely balanced compositions with a full mouthfeel and a more eggy taste; also recorded: Nice balanced, full mouthfeel, increased eggyness”.

And the tasting result [2]?
The tasting result was “more mouthfeel with body and less acidic; also recorded: Increased mouthfeel body less acidic”.

What about the tasting result ([3]; 0.2 PPM in chicken bouillon base) of the same compound?
The tasting result was “Saltier, Stronger and more umami”.

And the tasting result ([3]; 0.5 PPM in chicken bouillon base)?
Its tasting result is “More body and fatty notes, salivating and good aftertaste”.

What about the tasting result (Tasting in beef jus) of the same compound?
Its tasting result is “more salty, fatty, total profile is enhanced”.

And the tasting result [4]?
Its tasting result is “Strong umami, lingering cheese bite”.

And the tasting result (Tasting in cheese sauce)?
The tasting result was “Strong umami, cheese bite, expanding”.

And the tasting result ([5]; 0.5 ppm on fried potato snack)?
The tasting result was “Increased salty”.

What about the tasting result ([5]; 1 ppm on fried potato snack) of the same compound?
The tasting result was “Increased Umami, salty”.

What about the tasting result ([6]; 0.5 ppm on air expanded base) of the same compound?
The tasting result was “Increased salty”.

And the tasting result ([6]; 1 ppm on air expanded base)?
The tasting result was “Increased Umami, salty”.

For `CCCCC/C=C\C/C=C\CCCCCCCC(=O)N[C@@H](CC(N)=O)C(=O)O` [C18:2-asn, N-linoleoyl-Asn], which tasting result [7] is on record?
Its tasting result is “green fresh, nice, fatty nice fuller”.

What about the tasting result [8] of the same compound?
Its tasting result is “fuller, sweeter, jammy aftertaste, long lasting”.

What about the tasting result [9] of the same compound?
The tasting result was “sweeter more fatty round”.

What about the tasting result [10] of the same compound?
Its tasting result is “very ripe, authentic pear, very juicy, long lasting”.

What about the tasting result [11] of the same compound?
Its tasting result is “very ripe, jammy, long lasting, authentic”.
